Assay results from US8192962B2, “Processes for detecting toxic substances” (Daikin Industries, Ltd., priority 2001, dated 2012).

Test system: Energy system protein genes
Assay: DNA chip mRNA expression in yeast, energy system protein genes (Table 4)
Assay type: cell-based, Saccharomyces cerevisiae S288C
In short: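 S. cerevisiae S288C grown at 25° C in YPD were exposed in log phase for two hours to one toxic chemical at a growth-inhibiting, non-lethal concentration; untreated cells served as control. Poly(A) mRNA was reverse-transcribed with Cy3/Cy5-dUTP and hybridized to a whole-genome yeast DNA chip at 65° C for over 12 hours; values are fluorescence ratios versus untreated.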

**Q.** Which “The level of expressed mRNA in the presence of chemical substance/The level of expressed mRNA in the absence of chemical substance” value (yeast gene YJR048W) does the source give for `[Cl][Cd][Cl]` [(2), CdCl2] here?
**A.** 0.9

**Q.** What about the “The level of expressed mRNA in the presence of chemical substance/The level of expressed mRNA in the absence of chemical substance” value (yeast gene YJR121W, cells incubated two hours with the chemical substance) of the same compound?
**A.** 1.1

**Q.** What about the “The level of expressed mRNA in the presence of chemical substance/The level of expressed mRNA in the absence of chemical substance” value (yeast gene YJR155W) of the same compound?
**A.** 3.7

**Q.** And the “The level of expressed mRNA in the presence of chemical substance/The level of expressed mRNA in the absence of chemical substance” value (yeast gene YKL016C, cells incubated two hours with the chemical substance)?
**A.** 1.3

**Q.** What about the “The level of expressed mRNA in the presence of chemical substance/The level of expressed mRNA in the absence of chemical substance” value (yeast gene YKL060C, cells incubated two hours with the chemical substance) of the same compound?
**A.** 0.8

**Q.** And the “The level of expressed mRNA in the presence of chemical substance/The level of expressed mRNA in the absence of chemical substance” value (yeast gene YKL141W, cells incubated two hours with the chemical substance)?
**A.** 1.1

**Q.** What about the “The level of expressed mRNA in the presence of chemical substance/The level of expressed mRNA in the absence of chemical substance” value (yeast gene YKL148C, cells incubated two hours with the chemical substance) of the same compound?
**A.** 0.8

**Q.** What about the “The level of expressed mRNA in the presence of chemical substance/The level of expressed mRNA in the absence of chemical substance” value (yeast gene YKR009C, cells incubated two hours with the chemical substance) of the same compound?
**A.** 1.2

**Q.** And the “The level of expressed mRNA in the presence of chemical substance/The level of expressed mRNA in the absence of chemical substance” value (yeast gene YKR058W, cells incubated two hours with the chemical substance, 25° C., YPD medium)?
**A.** 0.9

**Q.** What about the “The level of expressed mRNA in the presence of chemical substance/The level of expressed mRNA in the absence of chemical substance” value (yeast gene YKR097W) of the same compound?
**A.** 2.4

**Q.** What about the “The level of expressed mRNA in the presence of chemical substance/The level of expressed mRNA in the absence of chemical substance” value (yeast gene YLL041C, cells incubated two hours with the chemical substance) of the same compound?
**A.** 0.5

**Q.** What about the “The level of expressed mRNA in the presence of chemical substance/The level of expressed mRNA in the absence of chemical substance” value (yeast gene YLR038C, cells incubated two hours with the chemical substance) of the same compound?
**A.** 1.1

**Q.** What about the “The level of expressed mRNA in the presence of chemical substance/The level of expressed mRNA in the absence of chemical substance” value (yeast gene YLR044C, cells incubated two hours with the chemical substance) of the same compound?
**A.** 0.6

**Q.** What about the “The level of expressed mRNA in the presence of chemical substance/The level of expressed mRNA in the absence of chemical substance” value (yeast gene YLR134W, cells incubated two hours with the chemical substance) of the same compound?
**A.** 0.6

**Q.** And the “The level of expressed mRNA in the presence of chemical substance/The level of expressed mRNA in the absence of chemical substance” value (yeast gene YLR258W, cells incubated two hours with the chemical substance)?
**A.** 1.0

**Q.** What about the “The level of expressed mRNA in the presence of chemical substance/The level of expressed mRNA in the absence of chemical substance” value (yeast gene YLR284C, cells incubated two hours with the chemical substance) of the same compound?
**A.** 1.0

**Q.** What about the “The level of expressed mRNA in the presence of chemical substance/The level of expressed mRNA in the absence of chemical substance” value (yeast gene YLR295C, cells incubated two hours with the chemical substance, 25° C., YPD medium) of the same compound?
**A.** 1.1

**Q.** What about the “The level of expressed mRNA in the presence of chemical substance/The level of expressed mRNA in the absence of chemical substance” value (yeast gene YLR304C, cells incubated two hours with the chemical substance) of the same compound?
**A.** 0.6

**Q.** What about the “The level of expressed mRNA in the presence of chemical substance/The level of expressed mRNA in the absence of chemical substance” value (yeast gene YLR345W) of the same compound?
**A.** 1.4

**Q.** What about the “The level of expressed mRNA in the presence of chemical substance/The level of expressed mRNA in the absence of chemical substance” value (yeast gene YLR354C, cells incubated two hours with the chemical substance) of the same compound?
**A.** 2.5

**Q.** And the “The level of expressed mRNA in the presence of chemical substance/The level of expressed mRNA in the absence of chemical substance” value (yeast gene YLR377C, cells incubated two hours with the chemical substance)?
**A.** 2.6

**Q.** What about the “The level of expressed mRNA in the presence of chemical substance/The level of expressed mRNA in the absence of chemical substance” value (yeast gene YLR395C, cells incubated two hours with the chemical substance) of the same compound?
**A.** 1.3

**Q.** And the “The level of expressed mRNA in the presence of chemical substance/The level of expressed mRNA in the absence of chemical substance” value (yeast gene YML087C)?
**A.** 1.6

**Q.** What about the “The level of expressed mRNA in the presence of chemical substance/The level of expressed mRNA in the absence of chemical substance” value (yeast gene YML120C, cells incubated two hours with the chemical substance) of the same compound?
**A.** 1.2

**Q.** And the “The level of expressed mRNA in the presence of chemical substance/The level of expressed mRNA in the absence of chemical substance” value (yeast gene YML129C, cells incubated two hours with the chemical substance)?
**A.** 0.9

**Q.** What about the “The level of expressed mRNA in the presence of chemical substance/The level of expressed mRNA in the absence of chemical substance” value (yeast gene YMR073C, cells incubated two hours with the chemical substance) of the same compound?
**A.** 1.1

**Q.** What about the “The level of expressed mRNA in the presence of chemical substance/The level of expressed mRNA in the absence of chemical substance” value (yeast gene YMR118C) of the same compound?
**A.** 2.9

**Q.** And the “The level of expressed mRNA in the presence of chemical substance/The level of expressed mRNA in the absence of chemical substance” value (yeast gene YMR205C, cells incubated two hours with the chemical substance)?
**A.** 0.7

**Q.** What about the “The level of expressed mRNA in the presence of chemical substance/The level of expressed mRNA in the absence of chemical substance” value (yeast gene YMR261C, cells incubated two hours with the chemical substance) of the same compound?
**A.** 1.6

**Q.** What about the “The level of expressed mRNA in the presence of chemical substance/The level of expressed mRNA in the absence of chemical substance” value (yeast gene YMR267W, cells incubated two hours with the chemical substance, 25° C., YPD medium) of the same compound?
**A.** 1.8

**Q.** And the “The level of expressed mRNA in the presence of chemical substance/The level of expressed mRNA in the absence of chemical substance” value (yeast gene YMR323W, cells incubated two hours with the chemical substance)?
**A.** 1.1

**Q.** What about the “The level of expressed mRNA in the presence of chemical substance/The level of expressed mRNA in the absence of chemical substance” value (yeast gene YNL071W) of the same compound?
**A.** 0.9

**Q.** What about the “The level of expressed mRNA in the presence of chemical substance/The level of expressed mRNA in the absence of chemical substance” value (yeast gene YNL202W, cells incubated two hours with the chemical substance) of the same compound?
**A.** 1.3

**Q.** And the “The level of expressed mRNA in the presence of chemical substance/The level of expressed mRNA in the absence of chemical substance” value (yeast gene YNL241C)?
**A.** 2.5

**Q.** What about the “The level of expressed mRNA in the presence of chemical substance/The level of expressed mRNA in the absence of chemical substance” value (yeast gene YNL331C) of the same compound?
**A.** 3.6

**Q.** And the “The level of expressed mRNA in the presence of chemical substance/The level of expressed mRNA in the absence of chemical substance” value (yeast gene YOL086C, cells incubated two hours with the chemical substance)?
**A.** 0.5

**Q.** And the “The level of expressed mRNA in the presence of chemical substance/The level of expressed mRNA in the absence of chemical substance” value (yeast gene YOL165C)?
**A.** 4.5

**Q.** And the “The level of expressed mRNA in the presence of chemical substance/The level of expressed mRNA in the absence of chemical substance” value (yeast gene YOR142W, cells incubated two hours with the chemical substance)?
**A.** 1.2

**Q.** What about the “The level of expressed mRNA in the presence of chemical substance/The level of expressed mRNA in the absence of chemical substance” value (yeast gene YOR178C, cells incubated two hours with the chemical substance) of the same compound?
**A.** 1.3

**Q.** And the “The level of expressed mRNA in the presence of chemical substance/The level of expressed mRNA in the absence of chemical substance” value (yeast gene YOR388C, cells incubated two hours with the chemical substance)?
**A.** 1.6

**Q.** What about the “The level of expressed mRNA in the presence of chemical substance/The level of expressed mRNA in the absence of chemical substance” value (yeast gene YPL031C, cells incubated two hours with the chemical substance) of the same compound?
**A.** 2.0

**Q.** What about the “The level of expressed mRNA in the presence of chemical substance/The level of expressed mRNA in the absence of chemical substance” value (yeast gene YPL061W, cells incubated two hours with the chemical substance) of the same compound?
**A.** 1.4

**Q.** And the “The level of expressed mRNA in the presence of chemical substance/The level of expressed mRNA in the absence of chemical substance” value (yeast gene YPL088W)?
**A.** 1.3

**Q.** And the “The level of expressed mRNA in the presence of chemical substance/The level of expressed mRNA in the absence of chemical substance” value (yeast gene YPL171C)?
**A.** 4.1

**Q.** What about the “The level of expressed mRNA in the presence of chemical substance/The level of expressed mRNA in the absence of chemical substance” value (yeast gene YPL240C) of the same compound?
**A.** 1.4

**Q.** What about the “The level of expressed mRNA in the presence of chemical substance/The level of expressed mRNA in the absence of chemical substance” value (yeast gene YPL262W, cells incubated two hours with the chemical substance) of the same compound?
**A.** 1.7

**Q.** What about the “The level of expressed mRNA in the presence of chemical substance/The level of expressed mRNA in the absence of chemical substance” value (yeast gene YPL275W, cells incubated two hours with the chemical substance) of the same compound?
**A.** 1.5

**Q.** What about the “The level of expressed mRNA in the presence of chemical substance/The level of expressed mRNA in the absence of chemical substance” value (yeast gene YPL276W, cells incubated two hours with the chemical substance) of the same compound?
**A.** 1.5

**Q.** What about the “The level of expressed mRNA in the presence of chemical substance/The level of expressed mRNA in the absence of chemical substance” value (yeast gene YPR048W, cells incubated two hours with the chemical substance) of the same compound?
**A.** 2.0

**Q.** And the “The level of expressed mRNA in the presence of chemical substance/The level of expressed mRNA in the absence of chemical substance” value (yeast gene YPR184W, cells incubated two hours with the chemical substance)?
**A.** 1.4
